Columns and labels:
[1] = room temperature, 2 weeks
[2] = molecular target: hLRH-1 LBD alone (no lipid added) (Homo sapiens, UniProt O00482); assay: Native gel; format: binding; settings: doses up to 100 µM
Solubility = format: physicochemical
mouse SF-1 = mouse SF-1 (Mus musculus, UniProt P33242); assay: RT-qPCR of endogenous target genes in HEK293 cells stably expressing SF-1; format: cell-based; settings: 10 µM, 24 h, relative to DMSO
hLRH-1 = hLRH-1 (Homo sapiens, UniProt O00482); assay: RT-qPCR of endogenous target genes in HEK293 cells stably expressing hLRH-1; format: cell-based; settings: 10 µM, 24 h
Chain of hLRH-1 (O00482 whole entry): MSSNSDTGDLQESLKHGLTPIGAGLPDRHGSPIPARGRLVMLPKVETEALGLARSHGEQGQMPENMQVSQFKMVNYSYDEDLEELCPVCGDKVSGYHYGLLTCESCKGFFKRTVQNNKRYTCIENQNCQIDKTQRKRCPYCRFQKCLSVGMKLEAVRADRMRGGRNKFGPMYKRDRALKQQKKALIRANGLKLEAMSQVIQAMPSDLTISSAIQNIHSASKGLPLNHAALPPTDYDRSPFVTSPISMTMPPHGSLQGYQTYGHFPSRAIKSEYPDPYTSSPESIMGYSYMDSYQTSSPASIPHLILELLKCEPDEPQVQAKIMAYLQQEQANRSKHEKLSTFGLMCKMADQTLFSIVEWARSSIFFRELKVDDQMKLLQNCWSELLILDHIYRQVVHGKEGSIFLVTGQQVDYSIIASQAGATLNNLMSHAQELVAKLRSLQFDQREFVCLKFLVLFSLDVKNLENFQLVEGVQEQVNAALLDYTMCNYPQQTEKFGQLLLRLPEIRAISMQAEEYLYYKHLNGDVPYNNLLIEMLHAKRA

LRH-1 = settings: cited from earlier work
H295R cell line = settings: cited from earlier work
SW-13 cell line = settings: cited from earlier work
SF-1 = settings: read-out: IC50 inverse agonist of SF-1; cited from earlier work
[3] = molecular target: human LRH-1 ligand binding domain, labeled with biotin (human, UniProt O00482 300-541, biotin (site not stated)); assay: FRET or BRET
Chain of human LRH-1 ligand binding domain, labeled with biotin (O00482 300-541): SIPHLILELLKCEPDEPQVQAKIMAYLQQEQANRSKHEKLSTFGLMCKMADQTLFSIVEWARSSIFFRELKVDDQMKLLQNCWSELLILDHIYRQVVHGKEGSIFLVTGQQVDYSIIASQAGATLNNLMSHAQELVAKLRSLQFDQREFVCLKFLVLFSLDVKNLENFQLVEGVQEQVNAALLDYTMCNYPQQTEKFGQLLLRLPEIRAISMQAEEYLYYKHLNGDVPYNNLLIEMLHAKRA

Chain of hLRH-1 LBD alone (no lipid added) (O00482 300-539 limits assumed): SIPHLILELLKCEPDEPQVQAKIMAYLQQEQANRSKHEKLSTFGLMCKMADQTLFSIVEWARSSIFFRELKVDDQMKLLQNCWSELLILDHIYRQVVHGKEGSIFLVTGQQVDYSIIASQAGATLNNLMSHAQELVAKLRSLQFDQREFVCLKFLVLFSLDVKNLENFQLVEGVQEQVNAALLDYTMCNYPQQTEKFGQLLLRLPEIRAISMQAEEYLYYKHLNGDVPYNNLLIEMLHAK
Chain of mouse SF-1 (P33242 whole entry): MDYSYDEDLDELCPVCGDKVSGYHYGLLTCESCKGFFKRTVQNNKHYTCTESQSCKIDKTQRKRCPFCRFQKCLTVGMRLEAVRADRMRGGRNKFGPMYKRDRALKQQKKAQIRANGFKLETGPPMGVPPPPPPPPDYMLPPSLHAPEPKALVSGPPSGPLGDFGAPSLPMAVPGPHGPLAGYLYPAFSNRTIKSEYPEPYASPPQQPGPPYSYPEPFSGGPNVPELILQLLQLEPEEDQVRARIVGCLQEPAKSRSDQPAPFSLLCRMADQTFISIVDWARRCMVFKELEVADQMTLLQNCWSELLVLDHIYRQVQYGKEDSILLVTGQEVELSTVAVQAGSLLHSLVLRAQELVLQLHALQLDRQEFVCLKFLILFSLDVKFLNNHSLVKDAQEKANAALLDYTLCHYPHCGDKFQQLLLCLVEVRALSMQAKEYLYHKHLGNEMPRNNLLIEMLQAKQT

For C=C(c1ccccc1)[C@@]12CCC[C@@H]1CC(CCCCCC)=C2c1ccccc1 (racemic) [Compound 18a, rac-(1R,5R)-3-Hexyl-2-phenyl-1-(1-phenylvinyl)-bicyclo[3.3.0]oc-t-2-ene], the “stability in CDCl3 in the presence of daylight” value [1] was “stable”.

With C=C(CCCC)[C@@]12CCC[C@@H]1CC(CCCCCC)=C2c1ccccc1 (racemic) [Compound 18j, rac-(1R,5R)-1-(Hex-1-en-2-yl)-3-hexyl-2-phenyl-bicyclo[3.3.0]oct-2-ene] the “shift in hLRH-1 LBD native PAGE migration” value [2] was “does not appear competent to shift hLRH-1 LBD migration” and the “solubility, in words” value (Solubility) was “very poor solubility in aqueous media”.

For C=C(c1ccccc1)[C@@]12CCC[C@@H]1CC(CCCCCC)=C2CCCO (racemic) [Compound 18s, rac-(1R,5R)-3-Hexyl-1-(phenylvinyl)-2-(propan-3-ol)-bicyclo[3.-3.0]oct-2-ene], the “shift in hLRH-1 LBD native PAGE migration” value [2] was “can consistently shift hLRH-1 LBD migration in this native gel assay, albeit with reduced potency as compared to 24-exo”.

For C=C(c1ccccc1)[C@@]12CN(C)C[C@@H]1CC(CCCCCC)=C2c1ccccc1 (racemic) [Compound 20a], the “SF-1-mediated transcription of endogenous SHP, StAR, G0S2 and MeOX1 target genes” value (mouse SF-1) was “significantly activate”, the “LRH-1 transcription of the SHP and MeOx1 genes” value (hLRH-1) was “failed to activate” and the “LRH-1 transcription of the StAR and G0S2 genes” value (hLRH-1) was “activated”. The “solubility, in words” value (Solubility) was “improved solubility”.

In the case of C=C(c1ccccc1)[C@@]12CC[C@@H](O)[C@@H]1CC(CCCCCC)=C2c1ccccc1 (racemic) [Compound 24-exo, rac-(1R,5R,6R)-3-Hexyl-6-hydroxy-2-phenyl-1-(phenylvinyl)-bicyclo[3.3.0]oct-2-ene], the “SF-1-mediated transcription of endogenous SHP, StAR, G0S2 and MeOX1 target genes” value (mouse SF-1) is reported as “significantly activate” and the “solubility, in words” value (Solubility) is reported as “reasonable solubility in polar solvents”.

For CCCCCCCOc1ccc(O)cc1 [Compound 8, p-heptyloxyphenol], the “activity against LRH-1” value (LRH-1) is given as “no activity”, the “proliferation of H295R” value (H295R cell line) is given as “inhibit proliferation” and the “proliferation of SW-13 (SF-1 negative)” value (SW-13 cell line) is given as “had the same effect”.

For CCOC(=O)C(C)Oc1cccc2c(=O)n(CC(=O)Nc3ccc(OC)cc3)ccc12 (centres unmarked) [Compound 9], the IC50 (SF-1) is listed as 200 nM, the “doxycycline (DOX) induced proliferation of H295R” value (H295R cell line; 10 µM) is listed as “modestly suppressed” and the “effect on SW-13 (SF-1 negative)” value (SW-13 cell line; 10 µM) is listed as “little effect”.

B1: biotin-labeled peptide derived from TIF-2 amino acids 737-757 (peptide)
peptide: QEPVSPKKKENALLRYLLDKDDTKD
HELM: PEPTIDE1{[O=C1N[C@H]2[C@H](CS[C@H]2CCCCC(=O)[*:2])N1].Q.E.P.V.S.P.K.K.K.E.N.A.L.L.R.Y.L.L.D.K.D.D.T.K.D.[am]}$$$$V2.0
SMILES: CC(C)C[C@H](NC(=O)[C@H](C)NC(=O)[C@H](CC(N)=O)NC(=O)[C@H](CCC(=O)O)NC(=O)[C@H](CCCCN)NC(=O)[C@H](CCCCN)NC(=O)[C@H](CCCCN)NC(=O)[C@@H]1CCCN1C(=O)[C@H](CO)NC(=O)[C@@H](NC(=O)[C@@H]1CCCN1C(=O)[C@H](CCC(=O)O)NC(=O)[C@H](CCC(N)=O)NC(=O)CCCC[C@@H]1SC[C@@H]2NC(=O)N[C@@H]21)C(C)C)C(=O)N[C@@H](CC(C)C)C(=O)N[C@@H](CCCNC(=N)N)C(=O)N[C@@H](Cc1ccc(O)cc1)C(=O)N[C@@H](CC(C)C)C(=O)N[C@@H](CC(C)C)C(=O)N[C@@H](CC(=O)O)C(=O)N[C@@H](CCCCN)C(=O)N[C@@H](CC(=O)O)C(=O)N[C@@H](CC(=O)O)C(=O)N[C@H](C(=O)N[C@@H](CCCCN)C(=O)N[C@@H](CC(=O)O)C(N)=O)[C@@H](C)O
B1: binds [3].
